# Tested on: G401 cells
# Experiment: G401 ELISA test
# Format: cell-based
# Settings: Homo sapiens, G-401; G401 cells treated with compounds for 72 hours; ELISA detecting K27 and H3; read-out: G401_ELISA IC50
# Protocol: • Plate Reader: Envision (Perkinelmner); plate shaker: IKA MTS 2/4; plate Washer: BioTek microplate wisher 405 select; Cell counter: Counterstar (Ruiyu-biotech); Cell culture incubator: MCO-15AC (ThermoFisher); Pipette: BioHit Multichannel. Pipette: 0.2-10 μL, 10-300 μL, 50-1200 μL; Centrifuge: Thermo Centrifuge ST 40R; Pure water system: Millipore Milli-Q Reference system; Refrigerator: Haier −80 degree, −20 degree, and 4-degree refrigerators; cell cryopreservation box: Mr. Frosty™ Gradient Cooling Box Cat #5100-0001
# • McCoys 5A (Modified) culture medium (ATCC); FBS (Gibco); 0.25% Trypsin/EDTA (Gibco); PBS (Hyclone); Penicillin/Streptomycin(100×) (Gibco); DMSO (Sigma); 384 cell culture plate (Corning); 384 detection plate (Greiner); 96 well plate (compound dilution) (Haimen, Qunchao); T75 Cell Culture Bottle (Corning)
# G401 cells were seeded in a 384-well cell culture plate and incubated overnight at 37° C. in a 5% CO2 cell culture incubator, after which the cells were treated with compounds of different concentrations for 72 hours. The 384-well cell culture plate was taken out and upside down in a centrifuge to centrifugeat 300 rpm for 1 minute. After centrifugation, the 384-well cell culture plate was washed twice with PBS, added with lysis solution and lysed for 60 minutes. Then neutralization buffer was added for mixing and incubation was continued for 30 minutes. 20 ul (for detecting K27) and 10 ul (for detecting H3) of cell lysate were extracted from the 384-well cell culture plate and transferred to a 384 ELISA detection plate and incubate overnight at 4° C. The next day, the 384 ELISA plate was taken out and washed 5 times with TBST in a microplate washer. Then, the plate was added with a blocking solution and sealed at room temperature for 1 hour. The blocking solution was discarded and the primary antibody was added and then the plate was incubated at room temperature for 1 hour. After incubation, the plate was washed with TBST 5 times in a microplate washer, then added with secondary antibody and incubated at room temperature for 1 hour. After incubation, the plate was washed with TBST 5 times in a microplate washer, and finally added with color developer for color development. The plate was read with Envision plate reader. The obtained data was converted into inhibition rate using the following calculation method: % Inhibition rate=100−100*(compound absorbance−positive control absorbance)/(negative control absorbance−positive control absorbance), and then the inhibition rate data was subjected to curve fitting using the “logarithmic (inhibitor) and reaction-variable slope (four parameters)” model in GraphPad Prism 5 software.
# The inhibition rate of the compound was calculated as follows: […]
# The compounds of the present invention were tested according to the above experimental method, and some results were shown in Table 3. The test results were classified by A, B, and C, wherein A represents IC50≤0.1 uM; B represents 0.1 uM<IC50≤1 uM; C represents IC50>1 uM
row,IC50 [nM],Compound
1,≤ 100,COc1nccc2ccc(Nc3ccc(CNc4ncc(CNCc5ccno5)cn4)cc3F)nc12 [PA258]
2,≤ 100,COc1nccc2ccc(Nc3ccc(CNc4ncc(CN5CCS(=O)(=O)CC5)cn4)cc3F)nc12 [PA259]
3,≤ 100,COc1nccc2ccc(Nc3ccc([C@H](C)Nc4ncc(CNCCS(C)(=O)=O)cn4)cc3F)nc12 [PA260]
4,≤ 100,COc1nccc2ccc(Nc3ccc([C@H](C)Nc4ncc(CNC5CCS(=O)(=O)CC5)cn4)cc3F)nc12 [PA261]
5,≤ 100,COc1nccc2ccc(Nc3ccc([C@H](C)Nc4ncc(C(C)C5CCS(=O)(=O)CC5)cn4)cc3F)nc12 (some centres unmarked) [PA262]
6,≤ 100,O=C(Cc1cnc(NCC23CCC(Nc4ccc5cccc(Cl)c5n4)(CC2)CC3)nc1)NC1COC1 [PA263]
7,≤ 100,O=C(Cc1cnc(NC(CO)C23CCC(Nc4ccc5ccnc(Cl)c5n4)(CC2)CC3)nc1)NC1COC1 (centres unmarked) [PA264]
8,≤ 100,Cc1ccc2ccc(Nc3ccc([C@H](C)Nc4ncc(CN(CCO)C5CS(=O)(=O)C5)cn4)cc3F)nc2c1Cl [PA266]
9,≤ 100,CCN(Cc1cnc(N[C@@H](C)c2ccc(Nc3ccc4ccc(C)c(Cl)c4n3)c(F)c2)nc1)C1CS(=O)(=O)C1 [PA267]
10,≤ 100,Cc1ccc2ccc(Nc3ccc([C@H](C)Nc4ncc(CN(CC(=O)O)C5CS(=O)(=O)C5)cn4)cc3F)nc2c1Cl [PA268]

# More lines, now with the values behind:
row,Compound,IC50 [nM]
1,COc1nccc2ccc(Nc3ccc(C(CO)Nc4ncc(CC(=O)NC5COC5)cn4)cc3F)nc12 (centres unmarked) [PA236],100 to 1000
2,COc1nccc2ccc(Nc3ccc([C@H](C)Nc4ccc(NC(=O)NC5COC5)cn4)cc3F)nc12 [PA238],100 to 1000
3,COc1nccc2ccc(Nc3ccc(CNc4ncc(CNCc5cocn5)cn4)cc3F)nc12 [PA239],100 to 1000
4,COc1nccc2ccc(Nc3ccc([C@H](C)Nc4ncc(CNCC5CC(F)(F)C5)cn4)cc3F)nc12 [PA240],100 to 1000
5,COc1nccc2ccc(Nc3ccc([C@H](C)Nc4c(F)cc(CNC5CS(=O)(=O)C5)cc4F)cc3F)nc12 [PA241],100 to 1000
6,COc1nccc2ccc(Nc3ccc(CNc4ncc(CNCCO)cn4)cc3F)nc12 [PA242],> 1000
7,O=C(Cc1cnc(NCc2ccc(Nc3ccc4c(Cl)nccc4n3)cc2)nc1)NC1COC1 [PA243],> 1000
8,COc1nccc2ccc(Nc3ccc(CNc4ncc(N5CCC(OC)C5)cn4)cc3F)nc12 (centres unmarked) [PA244],> 1000
9,COc1nccc2ccc(Nc3ccc([C@H](C)Nc4ncc(CCc5cc(C(N)=O)n[nH]5)cn4)cc3F)nc12 [PA245],> 1000
10,COCCNCc1cnc(NCc2ccc(Nc3ccc4ccnc(OC)c4n3)c(F)c2)nc1 [PA247],> 1000
11,COc1nccc2ccc(Nc3ccc(CNc4ncc(CNCc5cnn(C)c5)cn4)cc3F)nc12 [PA249],> 1000
12,O=C(Nc1ccc(NCC23CCC(Nc4ccc5ccnc(Cl)c5n4)(CC2)CC3)nc1)NC1COC1 [PA250],> 1000
13,COc1nccc2ccc(Nc3ccc(CNc4ncc(CC(=O)N5CC6(COC6)C5)cn4)cc3F)nc12 [PA251],> 1000
14,COc1nccc2ccc(Nc3ccc(CNc4ncc(CNCC5CCOCC5)cn4)cc3F)nc12 [PA252],> 1000
15,COc1nccn2cc(Nc3ccc(CNc4ncc(CC(=O)NC5COC5)cn4)cc3)nc12 [PA253],> 1000
16,COc1nccc2cnc(Nc3ccc(CNc4ncc(CC(=O)NC5COC5)cn4)cc3)nc12 [PA254],> 1000
17,Cn1ccc2ccc(Nc3ccc(CNc4ncc(CC(=O)NC5COC5)cn4)cc3)nc2c1=O [PA255],> 1000
18,COc1nccc2ccc(Nc3ccc([C@@H](CO)Nc4ncc(CC(=O)NC5COC5)cn4)cc3F)nc12 [PA256],> 1000
19,C[C@H](Nc1ncc(C(NC2CS(=O)(=O)C2)C(=O)OC(C)(C)C)cn1)C12CCC(Nc3ccc4ccnc(Cl)c4n3)(CC1)CC2 (some centres unmarked) [PA257],≤ 100
